Test in all cases: NCI-60 cell line screen, 48 h
Assay [1] has as its system DMS 114 small cell lung.
The subject of assay [2] is KM20L2 colon.
Assay [3] concerns LOX IMVI melanoma.
Assay [4] deals with MDA-MB-231 breast.
The subject of assay [5] is OVCAR-5 ovarian.
For assay [6], the system named is RXF 393 renal.
Assay [7] deals with SK-MEL-2 melanoma.
Assay [8] has as its system SNB-75 CNS.
Assay [9] relates to UACC-257 melanoma.
The subject of assay [10] is UACC-62 melanoma.

Consider 12 molecules from PubChem BioAssay (NCI).

“And” between values parts separate entries of the source, which are not always exact repeats. Equal entries are not always repeated.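 Following 48 hours of exposure in 96-well plates, responses at five concentrations were used to interpolate endpoints linearly. Here, GI50 denotes the concentration required for 50% inhibition of growth. At the TGI there is no net growth.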

With `Nc1ncnc2c(C3OC(CO)C(O)C3O)[nH]nc12` (centres undefined), the TGI in [1] is 1.36 µM; in assay [2], 8.26 µM; in [3] it was 2.22 µM and 0.4 µM; in assay [4], 0.0705 µM; in assay [5] it was 3.58 µM and 8.57 µM; in assay [6], 2.92 µM and 1.88 µM. Besides, the TGI in assay [7] was 0.739 µM and 0.5 µM; in assay [8] it was 5.29 µM and 1.25 µM; in assay [9] it was 10.2 µM and 26.6 µM; in assay [10] it was 10.7 µM and 10.2 µM. The GI50 in assay [3] is 0.147 µM; in assay [4], 0.0218 µM; in [5], 0.0727 µM; in assay [7], 0.0507 µM; in assay [9], 1.45 µM and 2.1 µM.
`COc1cc2c(c(OC)c1OC)-c1ccc(SC)c(=O)cc1[C@@H](NCc1cccc(C#N)c1)CC2`: the GI50 is under 0.0075 µM in assay [1]; under 0.0075 µM in assay [2]; under 0.0075 µM in assay [3]; over 75 µM in [5]; under 0.0075 µM in assay [7]; 6.18 µM in assay [9]. Also, the TGI is 0.0347 µM and < 0.0075 µM in [1]; 0.0302 µM and < 0.0075 µM in [2]; 16.6 µM in [3]; over 75 µM in assay [5]; under 0.0075 µM in assay [7]; 0.0568 µM in assay [8]. In addition, the TGI was over 75 µM in [9] and 0.0637 µM in assay [10].
For `NCCCC1NC(=O)/C(=C(O)/C=C/C2CCC[C@@H]2CC2SCCS2)C1=O` (some centres undefined), the TGI in assay [1], in assay [2], in assay [3], in assay [5], in assay [6] and in assay [7] was over 100 µM each time. Besides, the TGI in assay [8], in assay [9] and in assay [10] was over 100 µM each time.
Consider `Cc1ccccc1NC(=O)C1C(=O)N(c2ccccc2C)C(=O)/C1=N\N` (centres undefined), for which the TGI in assay [1], in assay [2], in [3], in [5], in assay [6] and in [7] was over 100 µM in each case. Besides, the TGI in [8], in assay [9] and in assay [10] was over 100 µM in each case.
For `Cc1c(C(=O)/C=C/c2ccccc2Cl)[n+](=O)c2ccccc2n1[O-]`, the TGI amounted to 20.1 µM in assay [1]; 30.6 µM in assay [2]; 35.7 µM in assay [5]; 27.3 µM in [7]; 30.5 µM in assay [8]; 27.2 µM in assay [9].
Turning to `Nc1ccc2c(c1)CC1c3ccccc3C(C2)c2ccccc21`, the TGI in [1], in assay [2], in assay [3], in assay [5], in assay [6] and in [7] was over 100 µM throughout. Further, the TGI in [8], in [9] and in assay [10] was over 100 µM throughout.
With `CC(=O)Nc1ccccc1-c1cnc2ccccc2n1`, the TGI in [1], in [2], in assay [3], in [5], in assay [8] and in assay [9] was over 100 µM each time. Moreover, in assay [10], the TGI is over 100 µM.
For the molecule `CC(=O)C1C(=O)C(=O)N(c2ccccc2N2C(=O)C(=O)C(C(C)=O)C2=O)C1=O` (centres undefined), the TGI in assay [1], in [2], in [3], in assay [5], in [6] and in assay [7] was over 100 µM in each case. Moreover, the TGI in assay [8], in assay [9] and in assay [10] was over 100 µM each time.
`COc1c(NC(=O)CC(C)=O)[c]([Hg][O]C(C)=O)c(OC)c(Cl)[c]1[Hg][O]C(C)=O`: the GI50 was 1.61 µM in assay [1]; 14.6 µM in assay [2]; 25.7 µM in assay [5]; 9.7 µM in assay [6]; 14.4 µM in [7]; 9.69 µM in [8]. The GI50 in [9] was 13.7 µM; in assay [10], 11 µM. Further, the TGI was found to be 13.5 µM in assay [1]; 28.5 µM in [2]; 40.4 µM in assay [5]; 24.7 µM in assay [6]; 27.6 µM in assay [7]; 29.5 µM in assay [8]. For the same molecule, the TGI in [9] was 26.5 µM; in assay [10], 22.9 µM.
Consider `Cc1ccccc1-c1c(N)nc(N)nc1C(=O)Nc1nccs1`, for which the TGI in assay [1], in assay [2], in assay [3], in assay [5], in [6] and in [7] was over 100 µM each time. Besides, the TGI in [8], in assay [9] and in assay [10] was over 100 µM in each case.
For the molecule `CCCCCCCCCC1C(C)c2c([nH]c3ccccc23)C2C(=O)N(c3ccccc3)C(=O)C21` (centres undefined), the TGI in assay [1] was 28.4 µM; in assay [2] it was 24.9 µM; in assay [5], 31.5 µM; in [6], 5.55 µM; in assay [7], 32.2 µM; in [8], 26.9 µM. For the same molecule, the TGI in assay [9] worked out at 29.3 µM; in assay [10] it was 33.1 µM.
As for `C/C(=N\NC(=O)c1ccccc1O)c1cccc(/C(C)=N/NC(=O)c2ccccc2O)n1`, the TGI in [1] was 36.9 µM; in assay [2], over 100 µM; in [3] it was over 100 µM; in assay [4] it was over 100 µM; in [5] it was 49.5 µM and > 100 µM; in assay [6], 32.5 µM and 30.6 µM. The TGI was 38.9 µM and > 100 µM in assay [7]; 33.5 µM and > 61.9 µM in [8]; over 100 µM in assay [9]; 20.6 µM and > 100 µM in [10]. Moreover, the GI50 in assay [2] is 1.13 µM; in assay [3] it was 0.505 µM; in [4] it was 10.6 µM; in assay [5], 10.8 µM and > 95.7 µM; in [6], 5.38 µM; in [8], 23 µM. Moreover, the GI50 is 16.5 µM and > 100 µM in assay [9]; 0.614 µM in assay [10].
